This note sets out measurements from patent US6174896A, “Quinuclidine derivatives and medicinal composition thereof” (Yamanouchi Pharmaceutical Co., Ltd., priority 1994, dated 2001).

The test system of this experiment is oxotremorine-induced salivary secretion. Put plainly: Test on salivary secretion in rat. The format is in vivo. Particulars: urethane-anesthetized male Wistar rat, oxotremorine 0.8 μmol/kg. The procedure:
A male Wistar rat (160-190 g) was subjected to anesthesia with urethane (0.8 g/kg i.p.), and the test compound was administered (to the control group: solvent). Fifteen minutes later, 0.8 μmol/kg of oxotremorine was administered. In each case, the drug was administered through its femoral artery. The saliva secreted for 5 minutes after the administration of oxotremorine was collected and weighed. The inhibition ratio against the amount of saliva in the control group was determined and the dose of the test compound required for 50% inhibition of the amount of saliva in the control group was designated as ID50.

`CN1[C@@H]2CC[C@H]1C[C@@H](OC(=O)C(CO)c1ccccc1)C2` (stereo partly shown) [atropine]: the “ID50 value (salivary secretion) compared with ED30 value (rhythmic bladder contraction)” value is listed as “substantially the same”.
